Laboratory results taken from patent US20230137943A1, “PHOTOPROXIMITY PROFILING OF PROTEIN-PROTEIN INTERACTIONS IN CELLS” (The University of Chicago, priority 2019, published 2023).

Target: T1, SNAP-FLAG/α-FLAG antibody complex (Homo sapiens, UniProt P16455, A127T/A154D/C150Q/C62A/E30R/G131K/G132T/G153L/K125A/K32I/L33F/M134L/N157G/Q115S/Q116H/R128A/R135S/S151G/S152D/S159E)
T1 construct: host or cells: clarified lysate of HEK293T cells transiently or stably expressing SnapFlag
T1 sequence (P16455 1-182 E30R/K32I/L33F/C62A/Q115S/Q116H/K125A/A127T/R128A/G131K/G132T/M134L/R135S/C150Q/S151G/S152D/G153L/A154D/N157G/S159E limits assumed): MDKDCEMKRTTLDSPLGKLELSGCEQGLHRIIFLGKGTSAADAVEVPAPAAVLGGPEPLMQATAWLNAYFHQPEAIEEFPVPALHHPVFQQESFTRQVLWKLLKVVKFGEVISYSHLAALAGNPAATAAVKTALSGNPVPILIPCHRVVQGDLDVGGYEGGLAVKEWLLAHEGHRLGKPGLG
Assay: Proximity-labeling assay in cell lysate (anti-biotin / anti-mouse Western blot)
Assay type: biochemical
Details: 500 nM probe; for Proximal labeling of heavy and light chains upon irradiation: 365 nm light 10 minutes (FIG. 4C, FIG. 12B)
Procedure: Proximity-labeling assays: Clarified cell lysate from HEK293T cells either transiently (see FIG. 4B) or stably (see FIG. 4C) expressing SNAP-Tag (NEB #N9183S; New England Biolabs, Ipswich, Mass., United States of America) or SnapFlag was normalized to 1 mg/mL and 250 μL aliquots incubated in a microcentrifuge tube with either 500 nM of PP1. PP2, or DMSO for 1 hour at 37° C. Washed anti-FLAG M2 affinity gel, 40 μL of a 50% slurry, was transferred to each reaction in 750 μL of DPBS and the resultant suspension left to rotate overnight at 4° C. (Sigma #A2220; Sigma-Aldrich, St. Louis, Mo., United States of America). Samples were then spun down at 4000×g, supernatant aspirated, and the resin washed with 1M urea in DPBS (1 mL×8) followed by DPBS (1 mL). After being resuspended in 100 μL of DPBS, the samples were placed on ice where they were irradiated with 365 nm light for 10 minutes (SPECTROLINKER™ XL-1500a UV crosslinker, Spectronics Corporation, Westbury, N.Y., United States of America). Once irradiated, the beads were washed with 100 mM pH 3.5 glycine buffer (100 μL×2) and DPBS (1 mL). To elute the remaining SNAP-FLAG and resin-bound FLAG-antibody the beads were boiled for 5 minutes at 95° C. in 20 μL 4×-loading buffer containing 8% SDS and 400 mM DTT. After which, 60 μL of DPBS was added and the suspension boiled at 95° C. for an additional 5 minutes. The samples were then run on SDS-PAGE gel and transferred to nitrocellulose where they were stained with anti-mouse IR dye (Li-cor #926-68072; Li-cor Biosciences, Lincoln, Nebr., United States of America) and streptavidin IR dye (Li-cor #926-32230; Li-cor Biosciences, Lincoln, Nebr., United States of America). Bands corresponding to biotinylated proteins and the FLAG antibody were visualized using an Odyssey infrared imager (Li-cor Biosciences, Lincoln, Nebr., United States of America).
To study if proximal protein interactors could be labeled in response to the dual photoactivation of PP1 in vitro, the interaction between SNAP-FLAG protein and an α-FLAG monoclonal antibody (mAb) was examined in cell lysate. In this assay, proximal biotinylation of both heavy and light chains of the antibody was expected, as well as self-labeling of the SNAP-FLAG protein, under conditions where the protein complex is formed and the PP1 probe is photoactivated. To test this hypothesis in the presence and absence of the protein-protein complex, SNAP protein that contained or lacked the FLAG epitope was treated with PP1 probe, followed by incubation with α-FLAG mAb, bead-based pulldown of the complexes, and subsequent photoactivation. […] The requirement for photoactivation of PP1, as well as a related probe PP2 (see FIG. 6) was tested by forming the SNAP-FLAG/α-FLAG complexes, and then comparing protein biotinylation with or without irradiation.
To study if proximal protein interactors could be labeled in response to the dual photoactivation of AC1 (see FIG. 12A) in vitro, the interaction between SNAP-FLAG protein and an α-FLAG monoclonal antibody (mAb) was examined in cell lysate. Briefly, 250 μL aliquots of cell lysate (HEK293T, SNAP-Flag) was incubated in a microcentrifuge tube with either 500 nM of photoprobe, or DMSO for 1 hour at 37° C. Washed anti-FLAG M2 affinity gel, 40 μL of a 50% slurry, was transferred to each reaction in 750 μL of DPBS and the resultant suspension left to rotate overnight at 4° C. (Sigma #A2220; Sigma-Aldrich, St. Louis, Mo., United States of America). Samples were then spun down at 4000×g, supernatant aspirated, and the resin washed with 1M urea in DPBS (1 mL×8) followed by DPBS (1 mL). After being resuspended in 250 μL of DPBS, the +UV samples were placed on ice where they were irradiated with 365 nm light for 10 minutes (SPECTROLINKER™ XL-1500a UV crosslinker, Spectronics Corporation, Westbury, N.Y., United States of America). Once irradiated, the beads were washed with 1 M Urea (1 mL×2) and DPBS (1 mL×2). […]

Biotinylation with SNAP protein that lacked the FLAG sequence (no FLAG epitope, 365 nm 10 minutes (FIG. 4B)) | Proximal labeling of heavy/light chain without irradiation (not exposed to 365 nm light (FIG. 4C)) | SMILES | Proximal labeling of heavy and light chains upon irradiation | Biotinylation of α-FLAG antibody chains with SNAP-FLAG protein (FLAG epitope present, 365 nm 10 minutes (FIG. 4B))
– | – | COc1cc(COC(=O)NC(CCCCNC(=O)CCC2(C)N=N2)C(=O)NCCCCC2SCC3NC(=O)NC32)c([N+](=O)[O-])cc1OCCCC(=O)NCc1ccc(COc2nc(N)nc3[nH]cnc23)cc1 (centres unmarked) [AC1] | labels a proximal protein binding partner | –
no protein-biotinylation | No proximal labeling | COc1cc(C(C)OC(=O)NC(CCCCNC(=O)CCC2(C)N=N2)C(=O)NCCCCCNC(=O)CCCCC2SCC3NC(=O)NC32)c([N+](=O)[O-])cc1OCCCC(=O)NCc1ccc(COc2nc(N)nc3[nH]cnc23)cc1 (centres unmarked) [PP1] | a discrete biotinylated band was formed on both heavy and light chains | robust biotinylation of both heavy and light chain fragments
